# Measured values: patent US20110033944A1, “METHOD FOR MEASURING HYPOCHLORITE ION” (SEKISUI MEDICAL CO., LTD., priority 2003, published 2011)
# Columns and labels:
# [1] = Reactivity of fluorescence probe to singlet oxygen (EP-1); format: physicochemical; conditions: 10 μM probe, EP-1 100 μM, pH 7.4, 37° C.
# Experimental: (§1) In the following example, a compound wherein R^1 is 2-carboxyphenyl group, and R^2 is 4-aminophenyl group in the general formula (I) (hereinafter referred to as “APF”) and a compound wherein R^3 is 2-carboxyphenyl group, and R^4 is 4-hydroxyphenyl group in the general formula (II) (hereinafter referred to as “HPF”) were used. Each of HPF and APF is dissolved in dimethylformamide (DMF) to obtain a 10 mM solution, and then added with a 100 mM sodium phosphate buffer (pH 7.4) to obtain a final concentration of 10 μM, unless otherwise specifically mentioned.
# (§2) Excitation spectra and fluorescence spectra were analyzed with Hitachi F4500. The slit width was 2.5 nm in both of the excitation spectra and fluorescence spectra. The photomultiplier voltage was 950 V. Unless otherwise specifically mentioned, excitation wavelength was 490 nm, fluorescence wavelength was 515 nm, and the measurement was performed at 37° C.
# (§3) Reactivities of APF and HPF to various reactive species containing oxygen were studied. […] The measurement was performed with excitation wavelength at 500 nm and with fluorescence wavelength at 520 nm for DCFH.
# A 10 μM fluorescence probe solution was put in a fluorescence cell, added with 3-(1,4-dihydro-1,4-epidioxy-1-naphthyl)propionic acid (EP-1; a final concentration of 100 μM), and was reacted for 30 minutes. […]
# [2] = Reactivity of fluorescence probe to superoxide (KO2); format: physicochemical; conditions: 10 μM probe, KO2 100 μM, pH 7.4, 37° C.
# Experimental: as §1, §2, §3
# A 10 μM fluorescence probe solution was put in a fluorescence cell, added with KO2 (a final concentration of 100 μM), and was reacted for 30 minutes. Fluorescence intensities before the addition of KO2 and 30 minutes after the addition were measured.
# [3] = Reactivity of fluorescence probe to hydrogen peroxide; format: physicochemical; conditions: 10 μM probe, H2O2 100 μM, pH 7.4, 37° C.
# Experimental: as §1, §2, §3
# A 10 μM fluorescence probe solution was put in a fluorescence cell, added with H2O2 (a final concentration of 100 μM), and was reacted for 30 minutes. Fluorescence intensities before the addition of H2O2 and 30 minutes after the addition were measured.
# [4] = Reactivity of fluorescence probe to nitric oxide (NOC13); format: physicochemical; conditions: 10 μM probe, NOC13 100 μM, pH 7.4, 37° C.
# Experimental: as §1, §2, §3
# A 10 μM fluorescence probe solution was put in a fluorescence cell, added with 1-hydroxy-2-oxo-3-(3-aminopropyl)-3-ethyl-1-triazine (NOC13; a final concentration of 100 μM), and was reacted for 30 minutes. […]
# Myeloperoxidase (human) = assay: Myeloperoxidase/H2O2 system, fluorescence measurement of generated hypochlorite ion; format: biochemical; conditions: 10 μM probe, myeloperoxidase 11.2 nM, 150 mM NaCl, 37° C.
# Experimental: as §1, §2
# (A) By using a 100 mM sodium phosphate buffer (pH 7.4) containing 150 mM sodium chloride, a 10 μM HPF solution and a 10 μM APF solution were prepared. Myeloperoxidase (human) were added to these solutions to obtain a final concentration of 11.2 nM. Each of the solution was put in each fluorescence cell, and a change in the fluorescence intensity with passage of time was measured. The temperature of the solutions were set at 37° C. […]
# neutrophils = assay: Fluorescence imaging of PMA-stimulated neutrophils; format: cell-based, porcine; conditions: 10 μM probe, PMA 2 ng/mL, excitation 488 nm, emission 505-550 nm
# Experimental: According to the method described in Wakeyama, H., Takeshige, K., Takayanagi, R., and Minakami S. (1982) Biochem. J. 205, 593-601 and Kakinuma, K., Kaneda, M., Chiba, T., and Ohnishi, T. (1986) J. Biol. Chem. 261, 9426-9432, neutrophils were obtained from 1.8 liters of porcine blood. Erythrocytes in the buffy coat collected from the blood were hemolyzed with a large volume of an ice-cooled 0.2% aqueous sodium chloride solution for […] and then the preparation was promptly mixed with an equal volume of a 1.6% aqueous sodium chloride solution to restore the isotonic condition. Neutrophils were separated from platelets and mononuclear cells by the Conrey-Ficoll method. The neutrophils were suspended in Krebs Ringer phosphate buffer (114 mM NaCl, 4.6 mM KCl, 2.4 mM MgSO4, 1.0 mM, CaCl2, 15 mM NaH2PO4/Na2HPO4, pH7.4).
# The separated neutrophils were seeded onto a glass-bottomed dish. Then the cells were loaded with HPF or APF (10 μM) after incubation for 30 minutes at room temperature. These neutrophils were stimulated with 4β-phorbol-12-myristate-13-acetate (PMA)(2 ng/mL). Fluorescence imaging was measured twice in each experiment: one is before and the other is 10 minutes after the stimulation with PMA. […]
# [5] = Reactivity of fluorescence probe to hydroxyl radical (H2O2 / ferrous perchlorate); format: physicochemical; conditions: 10 μM probe, H2O2 1 mM + ferrous perchlorate 100 μM, pH 7.4, room temperature
# Experimental: as §1, §2, §3
# A 10 μM fluorescence probe solution was added with an aqueous hydrogen peroxide solution (a final concentration of 1 mM), and further slowly added with an aqueous ferrous perchlorate (a final concentration of 100 μM). […]
# [6] = Reactivity of fluorescence probe to hypochlorite ion (sodium hypochlorite); format: physicochemical; conditions: 10 μM probe, sodium hypochlorite 1.0 μM, pH 7.4, 37° C.
# Experimental: as §1, §2, §3
# A 10 μM fluorescence probe solution was put in a fluorescence cell, added with an aqueous sodium hypochlorite solution (a final concentration of 1.0 μM). Fluorescence intensities before and after the addition of an aqueous sodium hypochlorite solution were measured.
structure (smiles),measurement,setting,value
Nc1ccc(Oc2ccc3c(-c4ccccc4C(=O)O)c4ccc(=O)cc-4oc3c2)cc1 [APF],Reactivity to singlet oxygen (fluorescence intensity before and 30 minutes after addition),[1],9
same,Reactivity to superoxide (fluorescence intensity before and 30 minutes after addition),[2],6
same,Reactivity to hydrogen peroxide (fluorescence intensity before and 30 minutes after addition),[3],<1
same,Reactivity to nitric oxide (fluorescence intensity before and 30 minutes after addition),[4],<1
same,Change in fluorescence intensity with time on addition of hydrogen peroxide (FIG. 1(A)),Myeloperoxidase (human); H2O2 1 μM,a significant increase in the fluorescence intensity was observed
same,Increase in fluorescence intensity before and after addition of hydrogen peroxide (FIG. 1(B)),"Myeloperoxidase (human); H2O2 0.1-1.0 μM, 5 minutes",fluorescence intensity was increased in a manner dependent on the concentration of the added hydrogen peroxide
same,Fluorescence intensity of probe-loaded neutrophils before and 10 minutes after stimulation with PMA,neutrophils,a significant increase was observed in fluorescence intensity
"O=C(O)c1ccccc1C1c2cc(Cl)c(O)cc2Oc2cc(O)c(Cl)cc21 [DCFH, 2′,7′-dichlorodihydrofluorescein, reference compound]",Reactivity to hydroxyl radical (fluorescence intensity before and after addition),[5],7400
same,Reactivity to hypochlorite ion (fluorescence intensity before and after addition),[6],86
same,Reactivity to singlet oxygen (fluorescence intensity before and 30 minutes after addition),[1],26
same,Reactivity to superoxide (fluorescence intensity before and 30 minutes after addition),[2],67
same,Reactivity to hydrogen peroxide (fluorescence intensity before and 30 minutes after addition),[3],190
same,Reactivity to nitric oxide (fluorescence intensity before and 30 minutes after addition),[4],150
